Source: patent US6984664B2, “Tertiary amino compounds having opioid receptor affinity” (Euro-Celtique, S.A., priority 1999, dated 2006)

How the values were obtained:
Assay type in all cases: binding
[1] = biological target: Mu opioid receptor (Homo sapiens, UniProt P35372); experiment: Affinity at the μ receptor ([35S]GTPγS membrane assay); conditions: opioid receptor membranes, 30 min room temperature, read-out: calc Ki (nM) μ
Method: (§1) Affinity at the μ, k and δ receptors for preferred compounds was obtained according to the following assays:
(§2) Mu, kappa or delta opioid receptor membrane solution was prepared by sequentially adding final concentrations of 0.075 μg/μl of the desired membrane protein, 10 μg/ml saponin, 3 μM GDP and 0.20 nM [^35S]GTPγS to binding buffer (100 mM NaCl, 10 mM MgCl2, 20 mM HEPES, pH 7.4) on ice. The prepared membrane solution (190 μl/well) was transferred to 96-shallow well polypropylene plates containing 10 μl of 20× concentrated stock solutions of agonist prepared in DMSO. Plates were incubated for 30 min at room temperature with shaking. Reactions were terminated by rapid filtration onto 96-well Unifilter GF/B filter plates (Packard) using a 96-well tissue harvester (Brandel) and followed by three filtration washes with 200 μl ice-cold binding buffer (10 mM NaH2PO4, 10 mM Na2HPO4, pH 7.4). Filter plates were subsequently dried at 50° C. for 2–3 hours. Fifty μl/well scintillation cocktail (MicroScint20, Packard) was added and plates were counted in a Packard Top-Count for 1 min/well.
(§3) Data were analyzed using the curve fitting functions in GraphPad PRISM™, v.

[2] = biological target: kappa opioid receptor (Homo sapiens, UniProt P41145); experiment: Affinity at the k receptor ([35S]GTPγS membrane assay); conditions: opioid receptor membranes, 30 min room temperature, read-out: calc Ki (nM) k
Method: as §1, §2, §3

[3] = biological target: delta opioid receptor (Homo sapiens, UniProt P41143); experiment: Affinity at the δ receptor ([35S]GTPγS membrane assay); conditions: opioid receptor membranes, 30 min room temperature, read-out: calc Ki (nM) δ2
Method: as §1, §2, §3

kappa opioid receptor, sequence (P41145 whole entry): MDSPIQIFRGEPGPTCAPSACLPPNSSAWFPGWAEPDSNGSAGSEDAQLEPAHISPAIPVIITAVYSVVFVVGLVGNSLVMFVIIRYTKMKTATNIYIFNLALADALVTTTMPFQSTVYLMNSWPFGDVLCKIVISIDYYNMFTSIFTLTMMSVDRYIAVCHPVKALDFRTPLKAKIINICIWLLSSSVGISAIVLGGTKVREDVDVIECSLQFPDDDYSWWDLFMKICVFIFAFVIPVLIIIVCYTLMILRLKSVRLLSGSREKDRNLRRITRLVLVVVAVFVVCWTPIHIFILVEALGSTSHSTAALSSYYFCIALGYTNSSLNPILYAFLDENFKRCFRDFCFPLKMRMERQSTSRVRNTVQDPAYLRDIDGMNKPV
Mu opioid receptor, sequence (P35372 whole entry): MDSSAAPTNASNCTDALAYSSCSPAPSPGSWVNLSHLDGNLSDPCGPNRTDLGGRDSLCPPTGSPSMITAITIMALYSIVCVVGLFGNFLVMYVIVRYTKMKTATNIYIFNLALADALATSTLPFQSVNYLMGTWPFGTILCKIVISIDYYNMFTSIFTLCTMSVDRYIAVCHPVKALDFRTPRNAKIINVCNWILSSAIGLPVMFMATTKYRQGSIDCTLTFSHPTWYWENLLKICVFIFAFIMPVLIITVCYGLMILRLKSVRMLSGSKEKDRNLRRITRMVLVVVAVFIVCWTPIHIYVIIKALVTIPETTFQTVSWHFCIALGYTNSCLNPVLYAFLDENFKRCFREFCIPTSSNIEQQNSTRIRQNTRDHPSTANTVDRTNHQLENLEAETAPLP
delta opioid receptor, sequence (P41143 whole entry): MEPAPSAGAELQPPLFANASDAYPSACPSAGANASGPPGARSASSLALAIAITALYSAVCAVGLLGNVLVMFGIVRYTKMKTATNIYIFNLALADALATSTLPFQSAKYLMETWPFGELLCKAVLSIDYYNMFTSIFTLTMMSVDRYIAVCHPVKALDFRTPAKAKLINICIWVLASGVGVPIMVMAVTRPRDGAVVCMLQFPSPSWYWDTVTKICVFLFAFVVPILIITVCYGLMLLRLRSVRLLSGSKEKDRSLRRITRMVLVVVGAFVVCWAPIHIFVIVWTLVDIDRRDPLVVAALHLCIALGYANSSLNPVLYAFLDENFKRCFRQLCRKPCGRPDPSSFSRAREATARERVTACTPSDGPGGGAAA

CCCCN(CCCC)CCN(Cc1ccccc1)C(=O)Cc1ccccc1 [1-[1-benzyl-1-(2-phenyl-1-oxo-ethyl)-amino]-2-dibutylamino-ethyl] showed a Ki [1] of 40 nM, a Ki [2] of 3500 nM and a Ki [3] greater than 10000 nM.
